Test results taken from patent US20130090494A1, “TETRAKIS[BIS(DIHYDROXYPHOSPHORYL)METHYL]CALIX[4]ARENE OR ITS SODIUM SALT THEREOF AS FIBRIN POLYMERIZATION INHIBITORS” (priority 2010, published 2013).
pIC50: −log10 of the molar value. “Also recorded” adds a separate entry of the source. Structures can show the parent of a compound that is named as a salt.

Key:
[1] = target: T1, fibrin polymerization (Homo sapiens, UniProt P02671+P02675+P02679); assay: Turbidity analysis of fibrin polymerization (system not specified); format: biochemical; settings: applicant's own experiments
T1 sequence (P02671 20-644 isoform P02671-2 limits assumed): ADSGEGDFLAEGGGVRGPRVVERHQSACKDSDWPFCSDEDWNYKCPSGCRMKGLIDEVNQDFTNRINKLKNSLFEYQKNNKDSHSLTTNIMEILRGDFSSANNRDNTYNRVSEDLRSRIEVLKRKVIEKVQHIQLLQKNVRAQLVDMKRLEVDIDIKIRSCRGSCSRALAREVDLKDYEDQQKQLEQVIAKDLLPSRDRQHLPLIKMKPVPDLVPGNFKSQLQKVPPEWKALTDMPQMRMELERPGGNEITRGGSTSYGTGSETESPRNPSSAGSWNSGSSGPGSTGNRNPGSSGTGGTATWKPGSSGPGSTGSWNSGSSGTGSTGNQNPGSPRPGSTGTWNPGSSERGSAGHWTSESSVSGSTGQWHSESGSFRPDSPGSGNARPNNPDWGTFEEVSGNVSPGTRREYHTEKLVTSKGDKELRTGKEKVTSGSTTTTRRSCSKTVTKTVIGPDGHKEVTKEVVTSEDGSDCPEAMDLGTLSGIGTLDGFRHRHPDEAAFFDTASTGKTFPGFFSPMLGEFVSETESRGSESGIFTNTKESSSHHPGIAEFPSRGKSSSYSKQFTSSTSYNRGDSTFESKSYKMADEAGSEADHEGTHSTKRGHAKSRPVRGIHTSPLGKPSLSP
T1 sequence (P02675 45-491 limits assumed): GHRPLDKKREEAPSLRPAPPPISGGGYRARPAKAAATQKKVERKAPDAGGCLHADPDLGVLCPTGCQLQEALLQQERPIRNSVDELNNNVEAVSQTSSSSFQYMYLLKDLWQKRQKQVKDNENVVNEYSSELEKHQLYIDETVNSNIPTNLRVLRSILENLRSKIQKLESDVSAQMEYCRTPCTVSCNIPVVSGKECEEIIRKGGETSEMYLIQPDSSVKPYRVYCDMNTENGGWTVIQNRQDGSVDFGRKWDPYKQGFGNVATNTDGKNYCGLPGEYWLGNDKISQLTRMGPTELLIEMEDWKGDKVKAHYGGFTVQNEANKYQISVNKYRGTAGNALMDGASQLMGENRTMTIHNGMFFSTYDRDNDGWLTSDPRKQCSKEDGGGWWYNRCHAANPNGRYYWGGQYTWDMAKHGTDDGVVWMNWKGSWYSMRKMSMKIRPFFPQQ
T1 sequence (P02679 27-437 isoform P02679-2 limits assumed): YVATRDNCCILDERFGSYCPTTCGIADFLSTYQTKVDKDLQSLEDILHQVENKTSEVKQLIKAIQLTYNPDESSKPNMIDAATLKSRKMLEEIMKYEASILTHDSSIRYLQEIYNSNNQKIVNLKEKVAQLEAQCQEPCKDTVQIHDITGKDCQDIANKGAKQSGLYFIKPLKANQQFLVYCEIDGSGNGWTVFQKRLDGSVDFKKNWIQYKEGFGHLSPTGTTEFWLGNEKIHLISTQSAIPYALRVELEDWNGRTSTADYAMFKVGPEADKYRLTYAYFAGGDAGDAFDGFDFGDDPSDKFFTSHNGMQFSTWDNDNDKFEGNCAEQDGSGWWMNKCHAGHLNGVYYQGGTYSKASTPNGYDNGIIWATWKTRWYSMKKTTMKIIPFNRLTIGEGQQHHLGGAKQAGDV
Text: Furthermore, because of electro neutrality of the declared calixarene-145 molecule, it may be more suitable for injection to a living organism as an inhibitor of fibrin polymerization and the process of blood clotting, as well.

[2] = target: T2, desAABB fibrin monomer polymerization (Homo sapiens, UniProt P02671+P02675+P02679); assay: Turbidity analysis of desAABB fibrin monomer polymerization; format: biochemical; settings: for final (maximum) turbidity of fibrin clot (Δh) / lag-time (τ) / maximum rate of fibrin polymerization (Vmax): desAABB fibrin polymerization medium, 0.5 μM, FIG. 2
T2 construct: DesAABB fibrin monomer was prepared in 0.02 M acetic acid was prepared during reaction fibrinogen+thrombin; The fibrinogen was prepared by sodium sulfate precipitation from human plasma; from tissue; host or cells: human blood plasma; fibrinogen converted with thrombin
T2 sequence (P02671 36-866 limits assumed): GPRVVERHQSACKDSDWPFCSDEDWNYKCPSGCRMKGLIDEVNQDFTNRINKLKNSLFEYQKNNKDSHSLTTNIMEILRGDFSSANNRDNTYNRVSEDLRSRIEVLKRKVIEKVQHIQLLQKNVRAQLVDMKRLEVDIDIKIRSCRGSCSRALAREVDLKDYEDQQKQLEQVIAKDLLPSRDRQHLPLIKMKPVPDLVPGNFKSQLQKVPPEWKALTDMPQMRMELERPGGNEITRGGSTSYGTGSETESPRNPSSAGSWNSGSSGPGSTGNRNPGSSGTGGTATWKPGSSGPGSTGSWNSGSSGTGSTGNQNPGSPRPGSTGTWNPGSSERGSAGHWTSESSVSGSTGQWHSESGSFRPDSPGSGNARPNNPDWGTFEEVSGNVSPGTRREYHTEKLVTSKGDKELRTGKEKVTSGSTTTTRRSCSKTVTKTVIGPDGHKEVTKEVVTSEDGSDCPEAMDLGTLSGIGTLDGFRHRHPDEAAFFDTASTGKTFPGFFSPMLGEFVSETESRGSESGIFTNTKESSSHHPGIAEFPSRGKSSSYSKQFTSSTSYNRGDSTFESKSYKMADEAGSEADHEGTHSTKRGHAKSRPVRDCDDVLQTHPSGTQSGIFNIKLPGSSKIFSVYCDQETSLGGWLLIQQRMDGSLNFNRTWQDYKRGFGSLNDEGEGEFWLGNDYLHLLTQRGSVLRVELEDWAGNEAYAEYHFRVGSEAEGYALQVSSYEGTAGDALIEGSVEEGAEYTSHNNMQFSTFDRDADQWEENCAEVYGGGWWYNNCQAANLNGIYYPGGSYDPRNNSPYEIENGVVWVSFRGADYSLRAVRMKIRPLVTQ
T2 sequence (P02675 45-491 limits assumed): T1 sequence (P02675 45-491 limits assumed)
T2 sequence (P02679 27-453): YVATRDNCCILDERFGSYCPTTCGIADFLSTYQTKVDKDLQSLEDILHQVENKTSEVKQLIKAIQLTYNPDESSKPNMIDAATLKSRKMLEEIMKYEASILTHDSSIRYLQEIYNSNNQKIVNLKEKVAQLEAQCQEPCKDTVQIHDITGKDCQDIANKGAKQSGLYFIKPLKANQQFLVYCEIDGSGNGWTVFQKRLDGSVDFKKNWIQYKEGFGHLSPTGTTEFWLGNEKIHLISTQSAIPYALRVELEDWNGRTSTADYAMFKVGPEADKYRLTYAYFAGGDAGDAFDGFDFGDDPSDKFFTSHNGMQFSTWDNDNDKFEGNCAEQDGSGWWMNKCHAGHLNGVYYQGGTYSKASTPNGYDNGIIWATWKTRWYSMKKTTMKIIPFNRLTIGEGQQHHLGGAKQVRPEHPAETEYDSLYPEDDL
Description: (§1) The fibrin polymerization by the action of thrombin on fibrinogen consists of two reactions: 1) thrombin-catalyzed conversion of fibrinogen to fibrin and 2) polymerization of the fibrin monomer to form three-dimensional network, which is the framework of thrombus.
(§2) The turbidity analysis of desAABB fibrin polymerization and of fibrin polymerization in the fibrinogen+thrombin reaction in the present and the absent of declared calixarenes C-192 and C-145
(§3) The fibrinogen was prepared by sodium sulfate precipitation from human plasma. DesAABB fibrin monomer was prepared in 0.02 M acetic acid was prepared during reaction fibrinogen+thrombin [10]. Polymerization of fibrin desAA and desAABB was studied in the polymerization medium containing at a low concentration thrombin at pH 5.3 [7]. In the experience of the system fibrinogen+thrombin in polymerization medium to add declared calixarene C-192 at a concentration of 0.5 mM.
The declared calixarene C-192 and C-145 was added on the desAABB fibrin polymerization medium at a concentration of 0.5 μM.

[3] = system: mice; assay: Acute toxicity in healthy adult mice; settings: mouse, in vivo
[4] = Acute toxicity in healthy adult mice; settings: mouse, in vivo, oral; healthy adult mice, perorally
[5] = target: T3, fibrin protofibril formation (Homo sapiens, UniProt P02671+P02675+P02679); assay: Transmission electron microscopy of fibrin formed in the thrombin-fibrinogen reaction; format: biochemical; settings: 50000 magnification, FIG. 4
T3 construct: The fibrinogen was prepared by sodium sulfate precipitation from human plasma; from tissue; host or cells: human blood plasma
T3 sequence (P02671 20-644 isoform P02671-2 limits assumed): T1 sequence (P02671 20-644 isoform P02671-2 limits assumed)
T3 sequence (P02675 45-491 limits assumed): T1 sequence (P02675 45-491 limits assumed)
T3 sequence (P02679 27-437 isoform P02679-2 limits assumed): T1 sequence (P02679 27-437 isoform P02679-2 limits assumed)
Text: The study of desAABB fibrin polymerization in the thrombin-fibrinogen reaction by transmission electron microscopy in the present and the absent of declared calixarenes C-192 and C-145
The analysis of the electron micrographs of the fibrin formed in the fibrinogen+thrombin reaction at different time intervals after the polymerization process beginning in the absence of calixarene C-192 (FIG. 4, A and B) and in the presence of calixarene C-192 (FIG. 4, C, D).
The samples of polymerizing fibrin produced in the thrombin-fibrinogen reaction in the absence or the presence of calixarene C-192 were taken out of the reaction medium at various times, placed on a carbon-coated grid for 2 min and then stained with 1% (w/v) uranyl acetate for 1 min. Transmission electron microscopy was performed with an H-600 electron microscope (Hitachi, Tokyo, Japan). Electron micrographs were obtained at −50 000 magnification.

[6] = system: human blood plasma coagulation (internal pathway); assay: Activated partial thromboplastin time (APTT) of human blood plasma
Text: (§4) The measuring of prothrombin time (PT) and activated partial thromboplastin time (APTT) for coagulation of human plasma in the presence of calixarene C-192.
(§5) The effects of calixarene C-192 on the coagulation of human blood plasma were studied using a coagulometer (CT 2410 ‘Solar’, Belarus).
The activated partial thromboplastin time calculated by the method. In the APTT-test comparing the formation of the fibrin clot in control samples: pure blood plasma specimens and blood plasma, in which the solute of calixarene C-192 at concentration of 50 μM. The prothrombin ratio Calculated by formula (1) equals 5.4.

[7] = target: T4, fibrin polymerization in the thrombin-fibrinogen reaction (Homo sapiens, UniProt P02671+P02675+P02679); assay: Turbidity analysis of fibrin polymerization in the thrombin-fibrinogen reaction; format: biochemical
T4 construct: The fibrinogen was prepared by sodium sulfate precipitation from human plasma; from tissue; host or cells: human blood plasma
T4 sequence (P02671 20-644 isoform P02671-2 limits assumed): T1 sequence (P02671 20-644 isoform P02671-2 limits assumed)
T4 sequence (P02675 45-491 limits assumed): T1 sequence (P02675 45-491 limits assumed)
T4 sequence (P02679 27-437 isoform P02679-2 limits assumed): T1 sequence (P02679 27-437 isoform P02679-2 limits assumed)
Description: as §1, §2, §3

[8] = system: human blood plasma coagulation (outer pathway); assay: Prothrombin time (PT) of human blood plasma
Description: as §4, §5
Using coagulometer measured the prothrombin ratio, which is calculated using the formula: […]
where: PR—prothrombin ratio; PTe—prothrombin time in the investigating blood plasma; PTc—prothrombin time in the control blood plasma.
The prothrombin time were calculated using the method. The dissolved calixarene C-192 at concentration of 50 μM was added to cuvette in the experience. The prothrombin ratio calculating by formula (I) equals 1.6.

[9] = normal human blood plasma, FIG. 3
[10] = fibrinogen+thrombin system, C-192 at 0.5 mM, FIG. 1

Row | Compound | pIC50 [1] | final (maximum) turbidity of fibrin clot (Δh) ([2]; listed as C-145) | lag-time (τ) ([2]; listed as C-145) | maximum rate of fibrin polymerization (Vmax) ([2]; listed as C-145) | toxicity class [3] | LD50 [4] [mg/kg] | effect on fibrin polymerization stage seen by electron microscopy [5] | prothrombin ratio calculated by formula (1) in the APTT-test ([6]; APTT-test, human plasma, 50 μM) | concentration that doubles the APTT [6, 9] | final turbidity of fibrin clot (Δh) [7, 10] | lag-time (τ) [7, 10] | maximum rate of fibrin polymerization (Vmax) [7, 10] | pIC50 ([7]; turbidity analysis, thrombin-fibrinogen reaction) | final (maximum) turbidity of fibrin clot (Δh) ([2]; listed as C-192) | lag-time (τ) ([2]; listed as C-192) | maximum rate of fibrin polymerization (Vmax) ([2]; listed as C-192) | pIC50 ([2]; fibrin monomer polymerization) | concentration that doubles the prothrombin time (PT) [8, 9] | prothrombin ratio (PR=PTe/PTc) ([8]; prothrombin time, human plasma, 50 μM)
1 | O=P(O)(O)C(c1cc2c(O)c(c1)Cc1cc(C(P(=O)(O)O)P(=O)(O)O)cc(c1O)Cc1cc(C(P(=O)(O)O)P(=O)(O)O)cc(c1O)Cc1cc(C(P(=O)(O)O)P(=O)(O)O)cc(c1O)C2)P(=O)(O)O [calixarene C-145, octasodium salt of 5,11,17,23-tetrakis [bis](dihydroxyphosphoryl)methyl calix[4]arene] | 5.60 | significantly decreased | increases; also recorded: increased significantly | significantly decreased | – | – | – | – | – | – | – | – | – | – | – | – | – | – | –
2 | O=P(O)(O)C(c1cc2c(O)c(c1)Cc1cc(C(P(=O)(O)O)P(=O)(O)O)cc(c1O)Cc1cc(C(P(=O)(O)O)P(=O)(O)O)cc(c1O)Cc1cc(C(P(=O)(O)O)P(=O)(O)O)cc(c1O)C2)P(=O)(O)O [calixarene C-192, 5,11,17,23-tetrakis[bis(dihydroxyphosphoryl)methyl]calix[4]arene] | – | – | – | – | median toxic compound | 780 | inhibits the first stage of fibrin polymerization protofibril formation; also recorded: inhibits the first stage of fibrin polymerization protofibril building | 5.4 | 1.7·10^−5 M | decreased; also recorded: reduced | increases; also recorded: significantly increased | significantly decreased; also recorded: greatly reduced | 6.30 | decreased | increased significantly | decreased | 6.00 | 7.0·10^−5 M | 1.6
